Measurements published in US20210180080A1, “USE OF ALS MUTANT PROTEIN AND THE GENE THEREOF IN PLANT BREEDING BASED ON GENE EDITING TECHNOLOGY” (priority 2018, published 2021).

Experiments:
Assay type in all cases: in vivo
[1] = tested on: Mutant A51 rice (ALS amino acid 628 glycine to tryptophan); experiment: herbicide resistance identification by spraying rice seedlings, mutant; conditions: investigated 14 days later
Source text: (§1) The homozygous mutant T1 individual plants identified in Examples 2 and 3 were propagated, and the seeds were harvested in the artificial climate room of Nanjing Jiangsu Academy of Agricultural Sciences, which were the T2 generation; the T2 generation was continued to be propagated to obtain T3 Generation seeds. After accelerating the germination of the harvested T3 seeds, they were sown at a density of 450 kg hm^−2. When the rice growed to two leaves and one heart, the field water was drained and imazethapyr (aqueous agent, purchased from Nanjing Aijin Agrochemical Co., Ltd.) was sprayed at 210, 700, and 1400 g(a.i.) hm^−2 concentrations, respectively, with the water as the control group. After spraying for 24 h, the water was rehydrated, and the resistance was investigated 14 days later.
(§2) After accelerating germination of the T3 generation seeds in Example 4, they were sown at a density of 450 kg hm^−2. When the rice growed to two leaves and one heart, water in the field water was drained and Bailongtong (aqueous agent, purchased from Nanjing Aijin Agrochemical Co., Ltd.) was sprayed at 240, 2400, 4800 g(ai) hm^−2 concentration with water as the control group. After spraying for 24 h, the water was rehydrated, and the resistance was investigated 14 days later.

[2] = tested on: wild-type rice Nanjing 9108; experiment: herbicide resistance identification by spraying rice seedlings, wild type; conditions: investigated 14 days later
Source text: as §1, §2

[3] = tested on: transgenic lines A1-A58 of rice Nanjing 9108; experiment: herbicide screening of T1 generation transgenic lines; conditions: 210 g (a.i.) hm^−2, investigated after 14 days
Protocol: The T0 generation plants were harvested as an individual plant, and the harvested seeds were germinated and sown at a density of 450 kg hm^−2. When the rice growed to two leaves and one heart, the water was drained from the field and imazethapyr (aqueous agent, purchased from Nanjing Aijin Agrochemical Co., Ltd.) was sprayed at 210 g (a.i.) hm^−2. Rehydrate after spraying for 24 h, and investigate resistance after 14 days. Plants with all withered or dead leaves were susceptibleness, while the healthy and viable plants were resistance. […] Therefore, the frequency of obtaining herbicide resistant strains in this study was 1.72%. According to reports, the mutation frequency of herbicide resistant rice lines obtained by chemical mutagenesis was 0.00003^˜0.006%.

[4] = 210 g(a.i.) hm^−2 sprayed at two leaves and one heart
[5] = 210 g(a.i.) hm^−2 sprayed at two leaves and one heart, listed as Imazethapyr

CCc1cnc(C2=NC(C)(C(C)C)C(=O)N2)c(C(=O)O)c1 (stereo not drawn) [imazethapyr]
resistance (survival) of mutant plants after spraying [1, 4]: could survive | resistance (survival) of mutant plants after spraying [1, 5]: still grow and develop normally | resistance (survival) of mutant plants after spraying ([1]; 240 g(ai) hm^−2 sprayed at two leaves and one heart): survived | resistance (survival) of mutant plants after spraying ([1]; 700 g(a.i.) hm^−2 sprayed at two leaves and one heart, T3 generation): could survive | resistance (survival) of mutant plants after spraying ([1]; 1400 g(a.i.) hm^−2 sprayed at two leaves and one heart, T3 generation): could survive | resistance (survival) of mutant plants after spraying ([1]; 2400 g(ai) hm^−2 sprayed at two leaves and one heart, T3 generation): survived | resistance (survival) of wild-type plants after spraying [2, 4]: all died | resistance (survival) of wild-type plants after spraying [2, 5]: appear to die in whole | resistance (survival) of wild-type plants after spraying ([2]; 700 g(a.i.) hm^−2 sprayed at two leaves and one heart): all died | resistance (survival) of wild-type plants after spraying ([2]; 1400 g(a.i.) hm^−2 sprayed at two leaves and one heart): all died | resistance of A51 line plants after spraying ([3]; A51 line, T1 generation): survived and showed herbicide resistance | resistance of the other 57 lines after spraying ([3]; the other 57 of lines A1-A58, T1 generation): died
